In one series the test system is BxPC-3 cells. The series can be described thus: BxPC-3 apoptosis by flow cytometry (PI staining). The settings on record: 48 hours. In kind it is cell-based. As for the experimental part: BxPC-3 cells were treated with cromolyn (10 μM) with (+) or without (−) gemcitabine (10 μM), and apoptosis was analyzed after 48 hours by flow cytometry. *, P<0.001 versus control, #, P=0.001 versus gemcitabine. Means and 95% confidence intervals of three independent experiments performed in triplicate are shown. Two-tailed two-sample (unpaired) Student's t-tests were used to determine P values. Standard propidium iodide (PI) staining by the hypotonic lysis method was used for apoptosis studies. Apoptosis was induced in 1.0×10^6 BxPC-3 cells by treatment with gemcitabine (10 μM), with or without cromolyn. After 48 hours the cells were detached from culture dishes by incubation in 0.05% trypsin-EDTA, washed once with cold PBS, and then incubated for 30 minutes in 500 μL of hypotonic solution (0.1% sodium citrate, 0.1% Triton X-100, 100 μg/mL RNAse, and 50 μg/mL PI), and analyzed by flow cytometry (EPICS XL, Beckman Coulter Inc, Fullerton, Calif.). Cells undergoing apoptosis that had lost part of their DNA were identified as the population of cells with sub-G1 DNA content. These assays were performed three times.
Background: A flow cytometer gives signals particle by particle.

The next series concerns BxPC-3 tumors. The series is described as follows: BxPC-3 orthotopic tumor growth and metastasis in scid mice. In kind it is in vivo. The settings on record: BxPC-3 model; for lung metastasis, mean: control 5.5×10^8; for tumor burden, difference versus control / tumor burden, mean: end of six weeks; for tumor burden, mean: gemcitabine 125 mg/kg bi-weekly i.p., cromolyn 5 mg/kg daily i.p., control 1.6×10^9. As for the experimental part:
FIGS. 4A-4F show the effect of cromolyn on BxPC-3 tumor growth and metastasis in vivo. BxPC-3 cells stably expressing the firefly luciferase gene were injected orthotopically into 4 week old male CB 17 scid mice. […] Mice were divided into four groups of five mice each with an equivalent mean tumor size between groups. […] One group was treated with water (control), one group received gemcitabine bi-weekly (125 mg kg body weight bi-weekly by intraperitoneal injection), one group was administered cromolyn daily (5 mg per kg body weight daily by intraperitoneal injection), and the final group was given the combination of daily cromolyn and bi-weekly gemcitabine. All groups were treated for six weeks. Bioluminescent imaging was done weekly to assess tumor growth. […] Means and 95% confidence intervals are shown. (n=20). Two-tailed two-sample (unpaired) Student's t-tests were used to determine P values. The anti-tumorigenic capability of the drug cromolyn was assessed in 4-week-old male CB 17 scid mice (n=20) carrying orthopic tumors of BxPC-3, MPanc96, and Panc-1 cells stably expressing a Lenti-luc reporter. All mouse experiments were reviewed and approved by the Institutional Animal Care and Use Committee of UT MD Anderson Cancer Center. All mice were maintained in a sterile environment. Cages, bedding, food, and water were all autoclaved. All mice were maintained on a daily 12-hour light/12-hour dark cycle, according to the institutional animal welfare guidelines. BxPC-3, MPanc96, and Pane-1 cells carrying the Lenti-luc reporter gene were grown to 80% confluence, harvested by incubation with trypsin-EDTA, washed twice in PBS, and resuspended to a final concentration of 4.0×10^6 cells/mL. Each mouse (n=20 mice per cell line) was injected (into the pancreas) with cell suspensions (50 μL). Bioluminescent imaging to determine tumor volume was performed 1 week after injection because the tumors became established within this amount of time. This initial tumor volume was used to divide the mice into four groups of five mice each, such that the mean tumor size was equal between groups (FIGS. 4A, 5A, and 6A). To allow enough time to observe differences among treatment groups, the mice were followed for the next 5 weeks. One group of mice was then treated biweekly with a sub-maximal concentration of gemcitabine (125 mg per kg body weight by i.p. injection). A second group was treated with a daily injection of cromolyn (5 mg per kg body weight by i.p. injection). A third group was treated with both bi-weekly gemcitabine and daily cromolyn. The control group was treated daily with vehicle. Treatments were continued for 5 weeks, and the effects on the tumor burden and metastasis were analyzed by weekly bioluminescence imaging (FIGS. 4B, 5B, and 6B). At the end of the experiment the mice were anesthetized with 1.5% isofluorane/air mixture and killed by cervical dislocation. Bioluminescence imaging was conducted using a cryogenically cooled IVIS 100 imaging system coupled to a data acquisition computer running Living Image software (Xenogen Corp., Alameda, Calif.). Before imaging, mice were placed in an acrylic chamber, anesthetized with 1.5% isofluorane/air mixture, and injected i.p. with 15 mg/mL of luciferin potassium salt in PBS at a dose of 150 mg per kg body weight. A digital grey scale image of each mouse was acquired, followed by acquisition and overlay of a pseudocolor image representing the spatial distribution of detected photons emerging from active luciferase within the mouse. Tumor volume was quantified as the sum of all detected photons within the region of the tumor per second. At the end of experiment, the mice were killed, and tumors were surgically removed and weighed. After the primary tumors were removed, cancer cell dissemination and metastasis was visualized using IVIS imaging, and metastatic colonies were counted. Subsequently, tissues were fixed with formaldehyde, and histology was used to verify the accuracy of the bioluminescence data. […]

A further series concerns MPan-96 cells. The series is described as follows: MPanc-96 cell invasiveness. The format is cell-based, Human.
The test system of the next series is NFκB activity. The series can be described thus: S100P stimulated NFκB luciferase reporter in MPanc-96 cells. The format is cell-based, Human. The settings on record: S100P 100 nM, compound 1 μM, 5 hours. As to the method: MPanc-96 pancreatic cancer cell lines stably expressing an NFκB luciferase reporter were examined for the effects of S100P, cromolyn and C5. Cells were plated at 5.0×10^3 cells/well, treated for 5 hours with 100 nM of S100P, with or without cromolyn and C5 (1 μM), and activity of a luciferase gene driven by the NFkB promoter was analyzed. P=0.05 C5 versus cromolyn. Two-tailed two-sample (unpaired) Student's t-tests were used to determine P values.
(In general: A reporter such as luciferase makes a cellular process visible.)

The subject of a further series is MPanc-96 cells. The series can be described thus: MPanc-96 cell apoptosis by flow cytometry, alone or with gemcitabine. The format is cell-based, Human. The settings on record: alone and in conjunction with gemcitabine 10 μM; 100 and 1000 nM; 72 hours. As for the experimental part:
FIG. 11 compares the effects of cromolyn and C5 alone and in combination with gemcitabine on MPanc-96 cell apoptosis. MPanc-96 cells were treated with cromolyn or C5 (100 and 1000 nM) with (+) or without (−) gemcitabine (10 μM). Apoptosis was analyzed after 72 hours by flow cytometry.

Another series has as its target T1, S100B with RAGE (Homo sapiens, UniProt P04271).
T1 sequence (P04271 1-92): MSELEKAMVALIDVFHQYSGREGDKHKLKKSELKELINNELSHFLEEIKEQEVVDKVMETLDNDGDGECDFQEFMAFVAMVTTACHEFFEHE
The series can be described thus: ELISA of S100B binding to RAGE (sRAGE coated plate). An excerpt: After removing un-bound S100B by washing with detergent, bound S100B and RAGE complex was quantified by adding HRP labeled antibody against S100B.

In another series the test system is PC3 prostate cells. The series can be described thus: PC3 prostate cell viability with taxol. The format is cell-based. The following applies: taxol 100 nM, cromolyn 10 μM, 48 hours. As to the method:
PC3 prostate cells were plated and treated with taxol (100 nM) either in the presence or absence of cromolyn (10 μM) for 48 hours. Cell viability was analyzed after 48 hours. *, P<0.05.

We go through 2 compounds from patent US20110195924A1, “Methods of Inhibiting the Interaction Between S100P and the Receptor for Advanced Glycation End-Products” (priority 2008, published 2011).

Molecules are shown by their SMILES. Where “and” joins values, the source holds several entries; their conditions need not be identical. Identical values can stand only once.

In the case of `Nc1ccn([C@@H]2O[C@H](CO)[C@@H](O)C2(F)F)c(=O)n1` [gemcitabine], the “apoptotic cells, difference versus control” value in the series on BxPC-3 cells (gemcitabine 10 μM) was found to be 27.3%. Also, in the series with BxPC-3 cells (gemcitabine 10 μM, control 3.7%), the “apoptotic cells, mean” value is 31.0% and 30.8%. Besides, in the series on BxPC-3 tumors, the “body weight, difference versus control” value is 3.9 g; the “lung metastasis, mean” value is reported as 3.9×10^8 photons/sec; the “tumor burden, difference versus control” value is 6.8×10^8 photons/sec; the “tumor burden, mean” value is recorded as 9.2×10^8 photons/sec. Further, the “body weight at the end of the experiment, mean” value with BxPC-3 tumors (control 31.1) was 27.2 g. Also, the “metastasis in lung or liver compared with control mice” value in the series on BxPC-3 tumors (treatment alone) is given as “did not reduce”.
Consider `O=C(O)c1cc(=O)c2c(OCC(O)COc3cccc4oc(C(=O)O)cc(=O)c34)cccc2o1` [cromolyn, disodium 1,3-bis[(2′-carboxylatochromon-5′-yl)oxy]-2-hydroxypropane], for which the “cell apoptosis, cromolyn alone” value in the series with BxPC-3 cells (cromolyn 10 μM) is recorded as “no statistically significant effect”. Also, in the series on MPan-96 cells, the basal cell invasiveness result is “inhibited”. Also, in the series with BxPC-3 tumors, the “liver metastasis (in words)” value is “but not liver metastasis”; the “lung metastasis, difference versus control” value is on record as 3.9×10^8 photons/sec; the “lung metastasis, mean” value is listed as 1.6×10^8 photons/sec; the “tumor burden, difference versus control” value is 1.2×10^9 photons/sec. Also, the “tumor burden, mean” value in the series on BxPC-3 tumors is on record as 4.4×10^8 photons/sec. The “effect on body weight (in words)” value in the series with BxPC-3 tumors (up to 6 weeks) is on record as “no effect”. Moreover, the “NFκB activity in pancreatic cancer cells in vitro” value in the series with NFκB activity is “inhibit”. In addition, in the series on MPanc-96 cells, the MPanc-96 cell viability entry was “inhibit”. The “interaction of S100B with RAGE” value at S100B with RAGE is “inhibit”. For the same compound, in the series on PC3 prostate cells, the “cell killing effect of taxol on prostate cancer cells” value is reported as “increased the cell killing effect of taxol”.
